Results: patent publication US20260144788A1, “COMPOUND FOR SHP2 PROTEIN DEGRADATION AND MEDICAL USES THEREOF” (UBIX THERAPEUTICS, INC., priority 2022, published 2026)

Molecular target: T1, SHP2 protein (Homo sapiens, UniProt Q06124)
T1 sequence (Q06124 1-593): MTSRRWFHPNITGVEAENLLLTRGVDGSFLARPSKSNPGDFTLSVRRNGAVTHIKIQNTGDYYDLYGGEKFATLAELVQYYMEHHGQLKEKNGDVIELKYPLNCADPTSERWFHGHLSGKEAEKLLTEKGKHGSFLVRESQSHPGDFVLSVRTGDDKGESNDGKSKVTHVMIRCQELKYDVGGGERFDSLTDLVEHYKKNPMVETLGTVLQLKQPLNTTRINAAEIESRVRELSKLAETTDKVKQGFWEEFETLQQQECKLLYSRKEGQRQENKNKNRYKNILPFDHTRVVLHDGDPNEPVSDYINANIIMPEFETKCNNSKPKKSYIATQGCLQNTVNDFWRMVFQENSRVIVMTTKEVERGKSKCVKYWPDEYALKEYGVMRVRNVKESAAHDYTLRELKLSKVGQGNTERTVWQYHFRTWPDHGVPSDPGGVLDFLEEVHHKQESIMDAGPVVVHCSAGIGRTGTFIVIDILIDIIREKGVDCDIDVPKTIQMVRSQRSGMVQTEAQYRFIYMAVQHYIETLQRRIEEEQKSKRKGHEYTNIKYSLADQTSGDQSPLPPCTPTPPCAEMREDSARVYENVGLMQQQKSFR
Experiment: Measurement of SHP2 protein degradation in MV-4-11 cells (western blotting)
Format: cell-based
Parameters: endogenous in cells
Settings: harvested after 24 hours
Outline: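 MV-4-11 cells in IMDM/5% FBS were exposed to compound at final 0.01, 0.1, 1 μM or 0.001, 0.01, 0.1 μM for 24 h, DMSO as negative control. BCA-normalised lysates were immunoblotted for SHP2 with GAPDH as loading control, read on LI-COR Odyssey.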

SHP2% degradation (0.01 μM): 95.8%
SHP2% degradation (0.1 μM): 100.0%
SMILES: CC(=O)N[C@H](C(=O)N1C[C@H](O)C[C@H]1C(=O)N[C@@H](C)c1ccc(-c2scnc2C)cc1OC1CCN(C(=O)C2CCN(c3nccc(Sc4cnc(N5CCC(C)(CN)CC5)cn4)c3Cl)CC2)CC1)C(C)(C)C [Example 87, (2S,4R)-1-((S)-2-acetamido-3,3-dimethylbutanoyl)-N—((S)-1-(2-((1-(1-(4-((5-(4-(aminomethyl)-4-methylpiperidin-1-yl)pyrazin-2-yl)thio)-3-chloropyridin-2-yl)piperidine-4-carbonyl)piperidin-4-yl)oxy)-4-(4-methylthiazol-5-yl)phenyl)ethyl)-4-hydroxypyrrolidine-2-carboxamide]
